ChEMBL document CHEMBL5352418, “Molecular networking assisted discovery and combinatorial biosynthesis of new antimicrobial pleuromutilins” (Eur J Med Chem, 2022)
In brackets after ≈: the same amount, converted by molar mass. Activity calls are given as the source filed them. The calls are words filed in the database; no cut-off is given here.

Tests used:
Escherichia coli [1] = assay: Antibacterial activity against Escherichia coli OP50 assessed as bacterial growth inhibition at 20 uM by CLSI protocol based broth microdilution method; type: functional; details: read-out: GI
Enterococcus faecalis = assay: Antibacterial activity against vancomycin-resistant Enterococcus faecalis clinical isolate assessed as bacterial growth inhibition by CLSI protocol based broth microdilution method; type: functional
RAW264.7 [2] = assay: Immunostimulatory activity in mouse RAW264.7 cells assessed as increase in cell viability at 0.078 to 10 uM incubated for 48 hrs by CCK-8 assay; type: functional, cell-based; details: dose 0.078-10 µM
Pseudomonas aeruginosa = assay: Antibacterial activity against Pseudomonas aeruginosa PA01 assessed as bacterial growth inhibition at 20 uM by CLSI protocol based broth microdilution method; type: functional; details: read-out: GI
RAW264.7 [3] = assay: Immunostimulatory activity in mouse RAW264.7 cells assessed as increase in cell viability at 1 uM incubated for 48 hrs by CCK-8 assay; type: functional
RAW264.7 [4] = assay: Cytotoxicity activity mouse RAW264.7 cells assessed as reduction in cell viability at upto 100 uM incubated for 48 hrs by CCK-8 assay; type: toxicity, cell-based; details: raw264.7, 48 h
Staphylococcus aureus = assay: Antibacterial activity against methicillin-resistant Staphylococcus aureus clinical isolate assessed as bacterial growth inhibition by CLSI protocol based broth microdilution method; type: functional
RAW264.7 [5] = assay: Immunostimulatory activity in mouse RAW264.7 cells assessed as increase in ROS production by measuring fluorescence intensity at 1 uM incubated for 24 hrs by DCFH-DA staining based fluorescence microplate reader assay; type: functional, cell-based
RAW264.7 [6] = assay: Immunostimulatory activity in mouse RAW264.7 cells assessed as increase in TNF-alpha production level at 1 uM incubated for 24 hrs by ELISA; type: functional, cell-based
RAW264.7 [7] = assay: Immunostimulatory activity in mouse RAW264.7 cells assessed as increase in NO production at 1 uM incubated for 24 hrs by Griess method; type: functional, cell-based
Escherichia coli [8] = assay: Antibacterial activity against enteropathogenic Escherichia coli […] assessed as bacterial growth inhibition at 20 uM by CLSI protocol based broth microdilution method; type: functional; details: read-out: GI
RAW264.7 [9] = assay: Immunostimulatory activity in mouse RAW264.7 cells assessed as increase in IL-6 production level at 1 uM incubated for 24 hrs by ELISA; type: functional, cell-based

| SMILES | inhibition of growth at 20 µM (Escherichia coli [1]) [%] | MIC (Enterococcus faecalis) [µM] | Activity (RAW264.7 [2]) | inhibition of growth at 20 µM (Pseudomonas aeruginosa) [%] | Activity (RAW264.7 [3]) | Activity (RAW264.7 [4]) | MIC (Staphylococcus aureus) [µM] | Activity (RAW264.7 [5]) | Activity (RAW264.7 [6]) | Activity (RAW264.7 [7]) | inhibition of growth at 20 µM (Escherichia coli [8]) [%] | Activity (RAW264.7 [9]) |
| --- | --- | --- | --- | --- | --- | --- | --- | --- | --- | --- | --- | --- |
| C=C[C@]1(C)C[C@@H](OC(C)=O)[C@@]2(C)C3C(=O)CC[C@@]3(CC[C@H]2C)[C@@H](C)[C@@H]1O (stereo partly drawn) | 61 | 2.5 (≈ 0.906 µg/mL) | Dose-Dependent Effect | 51 | 60% | Non-Toxic | 0.39 (≈ 0.141 µg/mL) | Active |  |  |  |  |
| C=C[C@@]1(C)C[C@H](C)[C@]23CCC(=O)C2[C@@](C)([C@H](C)CC3)[C@H](OC(C)=O)C1 (stereo partly drawn) |  | 1.25 (≈ 0.433 µg/mL) |  |  | inactive | Non-Toxic | 12.5 (≈ 4.33 µg/mL) |  |  |  |  |  |
| C=C[C@]1(C)C[C@@H](OC(=O)CO)[C@@]2(C)C3C(=O)[C@H](O)CC3(CC[C@H]2C)[C@@H](C)[C@@H]1O (single isomer, unassigned) | 70 | 1.25 (≈ 0.493 µg/mL) |  |  | inactive | Non-Toxic | 3.12 (≈ 1.23 µg/mL) |  | Active | Active | 52 | Active |
| CC(=O)OC[C@@H](O)[C@]1(C)C[C@@H](OC(=O)CO)[C@@]2(C)C3C(=O)CC[C@@]3(CC[C@H]2C)[C@@H](C)[C@@H]1O (stereo partly drawn) | 21 | > 20 |  |  | inactive | Non-Toxic | > 20 |  | Active |  |  | Active |
| C=C[C@]1(C)C[C@@H](O)[C@@]2(C)C3[C@H](O)CC[C@@]3(CC[C@H]2C)[C@@H](C)C1 (stereo partly drawn) |  | 20 (≈ 6.13 µg/mL) |  |  | inactive | Non-Toxic | 12.5 (≈ 3.83 µg/mL) |  |  |  |  |  |
| C=C[C@]1(C)C[C@@H](OC(C)=O)[C@@]2(C)C3=CC(=O)C[C@@]3([C@H](O)C[C@H]2C)[C@@H](C)[C@@H]1O |  | 5 (≈ 1.88 µg/mL) |  |  | inactive | Non-Toxic | > 20 |  | Active |  |  | Active |
| C=C[C@]1(C)C[C@@H](OC(=O)CO[C@H]2O[C@H](CO)[C@@H](O)[C@H](O)[C@H]2O)[C@@]2(C)C3C(=O)CCC3(CC[C@H]2C)[C@@H](C)[C@@H]1O (single isomer, unassigned) | 21 | > 20 |  |  | inactive | Non-Toxic | > 20 |  | Active | Active |  |  |
| C=C[C@]1(C)C[C@@H](OC(=O)CO)[C@@]2(C)C3C(=O)CC[C@@]3(CC[C@H]2C)[C@@H](C)[C@@H]1O (stereo partly drawn) | 71 | 0.31 (≈ 0.117 µg/mL) | Dose-Dependent Effect | 40 | 60% | Non-Toxic | 0.09 (≈ 0.0341 µg/mL) |  |  |  |  |  |
| C=C[C@]1(C)C[C@@H](O)[C@@]2(C)C3CCC[C@@]3(CC[C@H]2C)[C@@H](C)C1 (stereo partly drawn) |  | 20 (≈ 5.81 µg/mL) |  |  | inactive | Non-Toxic | 12.5 (≈ 3.63 µg/mL) |  | Active |  |  |  |
| C=C[C@@]1(C)C[C@H](C)[C@]23CC[C@@H](O)C2[C@@](C)([C@H](C)CC3)[C@H](OC(C)=O)C1 (stereo partly drawn) |  | 2.5 (≈ 0.871 µg/mL) |  |  | inactive | Non-Toxic | > 20 |  | Active |  |  |  |
| C=C[C@]1(C)C[C@@H](OC(=O)CO)[C@@]2(C)C3=CC(=O)C[C@@]3(CC[C@H]2C)[C@@H](C)[C@@H]1O |  | 5 (≈ 1.88 µg/mL) |  |  | inactive | Non-Toxic | > 20 |  | Active |  |  |  |
| C=C[C@]1(C)C[C@@H](O)[C@@]2(C)C3=CC(=O)C[C@@]3(CC[C@H]2C)[C@@H](C)[C@@H]1O |  | > 20 |  |  | inactive | Non-Toxic | > 20 |  | Active |  |  | Active |
| C=C[C@]1(C)C[C@@H](O)[C@@]2(C)C3[C@H](O)CC[C@@]3(CC[C@H]2C)[C@@H](C)[C@@H]1O (stereo partly drawn) |  | 20 (≈ 6.45 µg/mL) |  |  | inactive | Non-Toxic | 12.5 (≈ 4.03 µg/mL) |  |  |  |  |  |
| C[C@@H]1CC[C@@]23CCC(=O)C2[C@]1(C)[C@H](OC(=O)CO)C[C@@](C)([C@H](O)CO)[C@@H](O)[C@@H]3C (stereo partly drawn) | 50 | 20 (≈ 8.25 µg/mL) |  |  | inactive | Non-Toxic | > 20 |  | Active | Active |  |  |
| C=C[C@]1(C)C[C@@H](OC(C)=O)[C@@]2(C)C3[C@H](O)CC[C@@]3(CC[C@H]2C)[C@@H](C)[C@@H]1O (stereo partly drawn) | 20 | 0.625 (≈ 0.228 µg/mL) |  | 18 | inactive | Non-Toxic | 6.25 (≈ 2.28 µg/mL) |  | Active |  |  |  |
| C=C[C@]1(C)C[C@@H](O)[C@@]2(C)C3C(=O)CC[C@@]3(CC[C@H]2C)[C@@H](C)[C@@H]1O (stereo partly drawn) |  | 5 (≈ 1.6 µg/mL) |  |  | inactive | Non-Toxic | 6.25 (≈ 2 µg/mL) | Active |  |  |  |  |
| C[C@@H]1CC[C@@]23CCC(=O)C2[C@]1(C)[C@H](OC(=O)CO)C[C@@]1(C)[C@H](O)CO[C@H]1[C@@H]3C (stereo partly drawn) | 34 | 20 (≈ 7.89 µg/mL) |  |  | inactive | Non-Toxic | > 20 |  | Active | Active |  |  |
